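Test compounds were applied to cells in 96-well plates for 48 hours at 5 doses. GI50 = concentration required for 50% inhibition of growth.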 Calls of active or inactive are those of the source. Rule as the data show it: active = GI50 up to about 1.1 µM and inactive = higher.
What was measured:
Assay in all cases: NCI tumour cell line growth inhibition, 48 h
786-0 = tested on: 786-0
A498 = tested on: A498
A549 = tested on: A549
ACHN = tested on: ACHN
BT-549 = tested on: BT-549
CAKI-1 = tested on: CAKI-1
CCRF-CEM = tested on: CCRF-CEM
COLO 205 = tested on: COLO 205
DU-145 = tested on: DU-145
HCC 2998 = tested on: HCC 2998
HCT-116 = tested on: HCT-116
HCT-15 = tested on: HCT-15
HL-60 = tested on: HL-60
HOP-62 = tested on: HOP-62
HOP-92 = tested on: HOP-92
HT-29 = tested on: HT-29
Hs-578T = tested on: Hs-578T
IGROV-1 = tested on: IGROV-1
K562 = tested on: K562
KM12 = tested on: KM12
LOX IMVI = tested on: LOX IMVI
M14 = tested on: M14
MCF7 = tested on: MCF7
MDA-MB-231 = tested on: MDA-MB-231
MDA-MB-435 = tested on: MDA-MB-435
MDA-N = tested on: MDA-N
MOLT-4 = tested on: MOLT-4
Malme-3M = tested on: Malme-3M
NCI-H226 = tested on: NCI-H226
NCI-H23 = tested on: NCI-H23
NCI-H460 = tested on: NCI-H460
NCI-H522 = tested on: NCI-H522
NCI/ADR-RES = tested on: NCI/ADR-RES
OVCAR-3 = tested on: OVCAR-3
OVCAR-4 = tested on: OVCAR-4
OVCAR-5 = tested on: OVCAR-5
OVCAR-8 = tested on: OVCAR-8
PC-3 = tested on: PC-3
RPMI-8226 = tested on: RPMI-8226
RXF 393 = tested on: RXF 393
SF-268 = tested on: SF-268
SF-295 = tested on: SF-295
SF-539 = tested on: SF-539
SK-MEL-28 = tested on: SK-MEL-28
SK-MEL-2 = tested on: SK-MEL-2
SK-MEL-5 = tested on: SK-MEL-5
SN12C = tested on: SN12C
SNB-19 = tested on: SNB-19
SNB-75 = tested on: SNB-75
SR = tested on: SR
SW-620 = tested on: SW-620
T47D = tested on: T47D
TK-10 = tested on: TK-10
U-251 = tested on: U-251
UACC-257 = tested on: UACC-257
UACC-62 = tested on: UACC-62
UO-31 = tested on: UO-31
EKVX = tested on: EKVX
SK-OV-3 = tested on: SK-OV-3

Compound: N#Cc1cc2c(n(C3OC(CO)C(O)C(O)C3O)c1=S)CCCCCC2 (stereo not given)
- GI50 (786-0): > 100 µM (inactive)
- GI50 (A498): > 100 µM (inactive)
- GI50 (A549): > 100 µM (inactive)
- GI50 (ACHN): > 100 µM (inactive)
- GI50 (BT-549): > 100 µM (inactive)
- GI50 (CAKI-1): > 100 µM (inactive)
- GI50 (CCRF-CEM): > 100 µM (inactive)
- GI50 (COLO 205): > 100 µM (inactive)
- GI50 (DU-145): > 100 µM (inactive)
- GI50 (HCC 2998): > 100 µM (inactive)
- GI50 (HCT-116): > 100 µM (inactive)
- GI50 (HCT-15): > 100 µM
- GI50 (HL-60): > 100 µM (inactive)
- GI50 (HOP-62): > 100 µM (inactive)
- GI50 (HOP-92): > 100 µM (inactive)
- GI50 (HT-29): > 100 µM (inactive)
- GI50 (Hs-578T): > 100 µM (inactive)
- GI50 (IGROV-1): > 100 µM (inactive)
- GI50 (K562): > 100 µM (inactive)
- GI50 (KM12): > 100 µM (inactive)
- GI50 (LOX IMVI): > 100 µM (inactive)
- GI50 (M14): > 100 µM (inactive)
- GI50 (MCF7): > 100 µM (inactive)
- GI50 (MDA-MB-231): > 100 µM (inactive)
- GI50 (MDA-MB-435): > 100 µM (inactive)
- GI50 (MDA-N): > 100 µM (inactive)
- GI50 (MOLT-4): > 100 µM (inactive)
- GI50 (Malme-3M): > 100 µM (inactive)
- GI50 (NCI-H226): > 100 µM (inactive)
- GI50 (NCI-H23): > 100 µM (inactive)
- GI50 (NCI-H460): > 100 µM (inactive)
- GI50 (NCI-H522): > 100 µM (inactive)
- GI50 (NCI/ADR-RES): > 100 µM (inactive)
- GI50 (OVCAR-3): > 100 µM (inactive)
- GI50 (OVCAR-4): > 100 µM (inactive)
- GI50 (OVCAR-5): > 100 µM (inactive)
- GI50 (OVCAR-8): > 100 µM (inactive)
- GI50 (PC-3): > 100 µM (inactive)
- GI50 (RPMI-8226): > 100 µM (inactive)
- GI50 (RXF 393): > 100 µM (inactive)
- GI50 (SF-268): > 100 µM (inactive)
- GI50 (SF-295): > 100 µM (inactive)
- GI50 (SF-539): > 100 µM (inactive)
- GI50 (SK-MEL-28): > 100 µM (inactive)
- GI50 (SK-MEL-2): > 100 µM (inactive)
- GI50 (SK-MEL-5): > 100 µM (inactive)
- GI50 (SN12C): > 100 µM (inactive)
- GI50 (SNB-19): > 100 µM (inactive)
- GI50 (SNB-75): > 100 µM (inactive)
- GI50 (SR): > 100 µM (inactive)
- GI50 (SW-620): > 100 µM (inactive)
- GI50 (T47D): 80.2 µM (inactive)
- GI50 (TK-10): > 100 µM (inactive)
- GI50 (U-251): > 100 µM (inactive)
- GI50 (UACC-257): > 100 µM (inactive)
- GI50 (UACC-62): > 100 µM (inactive)
- GI50 (UO-31): > 100 µM (inactive)

Compound: O=C1C[C@@H](C(=O)OCc2ccccc2)NC(=O)C[C@@H](C(=O)OCc2ccccc2)NC(=O)C[C@@H](C(=O)OCc2ccccc2)N1
- GI50 (786-0): 21 µM (inactive)
- GI50 (A498): 27.5 µM (inactive)
- GI50 (A549): > 100 µM (inactive)
- GI50 (ACHN): 23 µM (inactive)
- GI50 (BT-549): > 100 µM (inactive)
- GI50 (CAKI-1): > 100 µM (inactive)
- GI50 (CCRF-CEM): 0.0675 µM (active)
- GI50 (COLO 205): > 100 µM (inactive)
- GI50 (DU-145): > 100 µM (inactive)
- GI50 (EKVX): > 100 µM (inactive)
- GI50 (HCC 2998): > 95.9 µM (inactive)
- GI50 (HCT-116): > 84.1 µM (inactive)
- GI50 (HCT-15): > 100 µM
- GI50 (HL-60): 0.659 µM (active)
- GI50 (HOP-62): 33.9 µM (inactive)
- GI50 (HOP-92): 20.7 µM (inactive)
- GI50 (HT-29): > 100 µM (inactive)
- GI50 (Hs-578T): 13.1 µM (inactive)
- GI50 (IGROV-1): 98.6 µM (inactive)
- GI50 (K562): 4.16 µM (inactive)
- GI50 (KM12): > 100 µM (inactive)
- GI50 (LOX IMVI): > 100 µM (inactive)
- GI50 (M14): > 92.9 µM (inactive)
- GI50 (MCF7): > 100 µM (inactive)
- GI50 (MDA-MB-231): 14 µM (inactive)
- GI50 (MDA-MB-435): > 100 µM (inactive)
- GI50 (MDA-N): > 100 µM (inactive)
- GI50 (MOLT-4): 4.15 µM (inactive)
- GI50 (NCI-H226): > 100 µM (inactive)
- GI50 (NCI-H23): 47 µM (inactive)
- GI50 (NCI-H460): > 100 µM (inactive)
- GI50 (NCI-H522): 36.6 µM (inactive)
- GI50 (NCI/ADR-RES): > 100 µM (inactive)
- GI50 (OVCAR-3): > 100 µM (inactive)
- GI50 (OVCAR-4): > 100 µM (inactive)
- GI50 (OVCAR-5): > 100 µM (inactive)
- GI50 (OVCAR-8): > 100 µM (inactive)
- GI50 (PC-3): > 100 µM (inactive)
- GI50 (RPMI-8226): 38.8 µM (inactive)
- GI50 (RXF 393): 13.3 µM (inactive)
- GI50 (SF-268): 15.2 µM (inactive)
- GI50 (SF-295): 20 µM (inactive)
- GI50 (SF-539): 18.5 µM (inactive)
- GI50 (SK-MEL-28): > 100 µM (inactive)
- GI50 (SK-MEL-2): 13 µM (inactive)
- GI50 (SK-MEL-5): > 100 µM (inactive)
- GI50 (SK-OV-3): 20.8 µM (inactive)
- GI50 (SN12C): > 100 µM (inactive)
- GI50 (SNB-19): 45.5 µM (inactive)
- GI50 (SNB-75): 1.06 µM (active)
- GI50 (SR): 4.06 µM (inactive)
- GI50 (SW-620): > 100 µM (inactive)
- GI50 (T47D): > 100 µM (inactive)
- GI50 (TK-10): 19.6 µM (inactive)
- GI50 (U-251): 12.1 µM (inactive)
- GI50 (UACC-257): > 100 µM (inactive)
- GI50 (UACC-62): 64.7 µM (inactive)
- GI50 (UO-31): > 100 µM (inactive)
